Measurements: US10117864B2, “Substituted N-bicyclo-2-aryl-quinolin-4-carboxamides and use thereof” (BAYER PHARMA AKTIENGESELLSCHAFT, priority 2015, dated 2018)
One block for each compound: values may come before it.

Legend:
[1] = eliminated renally; cited from earlier work
human FP receptor = human FP receptor (Homo sapiens (Human), UniProt P43088); assay: In vitro test of inhibition of human FP receptor activity (PGF2α-induced calcium flux in FP-expressing CHEM1 cells); type: cell-based; settings: PGF2α-induced (3 nM) calcium flux, some as mean values from multiple independent determinations
Description: • CRTH2 chemoattractant receptor-homologous molecule expressed on T helper type 2 cells • DMEM Dulbecco's modified Eagle's medium • DMSO dimethyl sulfoxide • DP PGD2 receptor • EC50 half-maximum effective concentration • Em emission • EP PGE2 receptor • Ex excitation • from Company (source) • FCS fetal calf serum • FP PGF2α receptor • HEPES 2-[4-(2-hydroxyethyl)piperazin-1-yl]ethanesulfonic acid • IC50 half-maximum inhibitory concentration • IP PGI2 receptor • MES 2-(N-morpholino)ethanesulfonic acid • Pen/Strep penicillin/streptomycin • PGD2 prostaglandin D2 • PGE2 prostaglandin E2 • PGF2α prostaglandin F2α • PGI2 prostaglandin I2 • TC tissue culture • TP thromboxane A2 receptor • Tris tris(hydroxymethyl)aminomethane • v/v volume to volume ratio (of a solution) • w/w weight to weight ratio (of a solution) B-1. In Vitro Test of Inhibition of Human FP Receptor Activity
For the characterization of test substances in respect of FP antagonism, PGF2α-induced calcium flux in FP-expressing CHEM1 cells (Millipore, HTS093C) was used.
Prior to the measurement, the medium is replaced by 30 μl of Fluo-8 AM loading buffer [calcium-free Tyrode (130 mM NaCl, 5 mM KCl, 20 mM HEPES, 1 mM MgCl2, 4.8 mM NaHCO3, pH 7.4), 2 mM CaCl2, 1× SmartBlock (from CANDOR Bioscience GmbH), 4.5 mM Probenecid, 5 μM Fluo-8 AM, 0.016% Pluronic®, 0.04% Brilliant black] and incubated at 37° C./5% CO2 for 30 minutes. […] 10 μl of the prediluted substance solution are added to the Fluo-8-laden cells and incubated at 37° C./5% CO2 for 10 minutes. The FP receptor is activated by adding 20 μl of 3 nM (final concentration) PGF2α in calcium-free Tyrode/2 mM CaCl2/0.04% Brilliant black, and the calcium flux is determined by measuring the fluorescence at ex. 470 nm/[…].
Table 1 below lists the IC50 values from this assay for individual working examples of the invention (some as mean values from multiple independent individual determinations): […]

[2] = unstable molecule, rearranged enzymatically in lung, liver and kidney to 15-ketodihydro-PGF2α; cited from earlier work

Chain of human FP receptor (P43088 whole entry): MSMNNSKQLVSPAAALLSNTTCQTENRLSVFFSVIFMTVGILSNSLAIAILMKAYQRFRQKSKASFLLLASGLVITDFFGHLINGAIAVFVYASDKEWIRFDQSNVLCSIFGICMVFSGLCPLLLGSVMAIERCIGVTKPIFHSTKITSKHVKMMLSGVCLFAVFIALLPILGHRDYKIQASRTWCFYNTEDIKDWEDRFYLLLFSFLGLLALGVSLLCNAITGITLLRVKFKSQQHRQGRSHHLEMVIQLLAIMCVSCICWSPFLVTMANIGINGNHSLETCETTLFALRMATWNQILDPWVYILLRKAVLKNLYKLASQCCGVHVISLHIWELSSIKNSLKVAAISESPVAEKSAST

Compound: Bleomycin
- half-life [1]: about 3 hours

Compound: Cc1c(-c2ccccc2)nc2ccc(I)cc2c1C(=O)NC12CCC(C(=O)O)(CC1)OC2 [Example 64, 4-{[(6-Iodo-3-methyl-2-phenylquinolin-4-yl)carbonyl]amino}-2-oxabicyclo [2.2.2]octane-1-carboxylic acid]
- IC50 (human FP receptor): 0.762 µM

Compound: Cc1c(-c2ccccc2)nc2ccc(I)cc2c1C(=O)NC12CCC(C(=O)O)(CC1)C2 [Example 38, 4-{[(6-Iodo-3-methyl-2-phenylquinolin-4-yl)carbonyl]amino}bicyclo [2.2.1]heptane-1-carboxylic acid]
- IC50 (human FP receptor): 1.28 µM

Compound: Cc1c(-c2ccccc2)nc2ccc(C(F)(F)F)cc2c1C(=O)NC12CCC(C(=O)O)(CC1)CC2 [Example 34, 4-({[3-Methyl-2-phenyl-6-(trifluoromethyl)quinolin-4-yl]carbonyl}amino)bicyclo[2.2.2]octane-1-carboxylic acid]
- IC50 (human FP receptor): 0.505 µM

Compound: Cc1c(-c2ccccc2)nc2ccc(Br)cc2c1C(=O)N[C@@H]1[C@@H]2CC[C@H]1C[C@H](C(=O)O)C2 [Example 65, (3-exo,8-anti)-8-{[(6-Bromo-3-methyl-2-phenylquinolin-4-yl)carbonyl]amino}bicyclo[3.2.1]octane-3-carboxylic acid]
- IC50 (human FP receptor): 0.824 µM

Compound: Cc1c(-c2c(F)cccc2F)nc2ccc(Br)cc2c1C(=O)NC12CCC(C(=O)O)(CC1)CC2 [Example 25, 4-({[6-Bromo-2-(2,6-difluorophenyl)-3-methylquinolin-4-yl]carbonyl}amino)bicyclo[2.2.2]octane-1-carboxylic acid]
- IC50 (human FP receptor): 0.494 µM

Compound: Cc1c(-c2ccccc2)nc2ccc(SC(F)(F)F)cc2c1C(=O)NC12CCC(C(=O)O)(CC1)CC2 [Example 20, 4-[({3-Methyl-2-phenyl-6-[(trifluoromethyl)sulfanyl]quinolin-4-yl}carbonyl)amino]bicyclo[2.2.2]octane-1-carboxylic acid]
- IC50 (human FP receptor): 0.521 µM

Compound: C=Cc1c(-c2ccccc2)nc2ccc(Br)cc2c1C(=O)NC12CCC(C(=O)O)(CC1)CC2 [Example 67, 4-{[(6-Bromo-2-phenyl-3-vinylquinolin-4-yl)carbonyl]amino}bicyclo[2.2.2]octane-1-carboxylic acid]
- IC50 (human FP receptor): 0.44 µM

Compound: Cc1c(-c2ccccc2)nc2ccc(C(F)F)cc2c1C(=O)NC12CCC(C(=O)O)(CC1)CC2 [Example 18, 4-({[6-(Difluoromethyl)-3-methyl-2-phenylquinolin-4-yl]carbonyl}amino)bicyclo[2.2.2]octane-1-carboxylic acid]
- IC50 (human FP receptor): 0.543 µM

Compound: Prostaglandin F2alpha [PGF2α]
- t1/2 [2]: < 1 min

Compound: Cc1c(-c2ccccc2)nc2ccc([Si](C)(C)C)cc2c1C(=O)NC12CCC(C(=O)O)(CC1)CC2 [Example 17, 4-({[3-Methyl-2-phenyl-6-(trimethylsilyl)quinolin-4-yl]carbonyl}amino)bicyclo[2.2.2]octane-1-carboxylic acid]
- IC50 (human FP receptor): 0.214 µM

Compound: Cc1c(-c2ccccc2)nc2ccc(Br)cc2c1C(=O)NC12CCC(C(=O)O)(CC1)C(O)C2 (racemic) [Example 59, 4-{[(6-Bromo-3-methyl-2-phenylquinolin-4-yl)carbonyl]amino}-2-hydroxybicyclo[2.2.2]octane-1-carboxylic acid (racemate)]
- IC50 (human FP receptor): 0.435 µM

Next, values leading:

- IC50 (human FP receptor): 0.383 µM
Compound: Cc1c(-c2ccc(Br)s2)nc2ccc(Br)cc2c1C(=O)NC12CCC(C(=O)O)(CC1)CC2 [Example 55, 4-({[6-Bromo-2-(5-bromo-2-thienyl)-3-methylquinolin-4-yl]carbonyl}amino)bicyclo[2.2.2]octane-1-carboxylic acid]

- IC50 (human FP receptor): 0.051 µM
Compound: O=C(NC12CCC(C(=O)O)(CC1)CC2)c1c(C2CC2)c(-c2ccccc2)nc2ccc(I)cc12 [Example 33, 4-{[(3-Cyclopropyl-6-iodo-2-phenylquinolin-4-yl)carbonyl]amino}bicyclo[2.2.2]octane-1-carboxylic acid]

- IC50 (human FP receptor): 0.386 µM
Compound: Cc1c(-c2cc(F)cc(F)c2)nc2ccc(Br)cc2c1C(=O)NC12CCC(C(=O)O)(CC1)CC2 [Example 9, 4-({[6-Bromo-2-(3,5-difluorophenyl)-3-methylquinolin-4-yl]carbonyl}amino)bicyclo[2.2.2]octane-1-carboxylic acid]

- IC50 (human FP receptor): 0.114 µM
Compound: COc1cccc(-c2nc3ccc(Br)cc3c(C(=O)NC34CCC(C(=O)O)(CC3)CC4)c2C)c1 [Example 26, 4-({[6-Bromo-2-(3-methoxyphenyl)-3-methylquinolin-4-yl]carbonyl}amino)bicyclo[2.2.2]octane-1-carboxylic acid]

- IC50 (human FP receptor): 0.22 µM
Compound: CCc1c(-c2ccccc2)nc2ccc(Br)cc2c1C(=O)NC12CCC(C(=O)O)(CC1)CC2 [Example 28, 4-{[(6-Bromo-3-ethyl-2-phenylquinolin-4-yl)carbonyl]amino}bicyclo[2.2.2]octane-1-carboxylic acid]

- IC50 (human FP receptor): 0.235 µM
Compound: Cc1ccc(-c2nc3ccc(Br)cc3c(C(=O)NC34CCC(C(=O)O)(CC3)CC4)c2C)s1 [Example 53, 4-({[6-Bromo-3-methyl-2-(5-methyl-2-thienyl)quinolin-4-yl]carbonyl}amino)bicyclo[2.2.2]octane-1-carboxylic acid]

- IC50 (human FP receptor): 0.051 µM
Compound: O=C(NC12CCC(C(=O)O)(CC1)CC2)c1c(C2CC2)c(-c2ccccc2)nc2ccc(Br)cc12 [Example 29, 4-{[(6-Bromo-3-cyclopropyl-2-phenylquinolin-4-yl)carbonyl]amino}bicyclo[2.2.2]octane-1-carboxylic acid]

- IC50 (human FP receptor): 0.306 µM
Compound: Cc1cc2nc(-c3ccccc3)c(C)c(C(=O)NC34CCC(C(=O)O)(CC3)CC4)c2cc1C [Example 23]

- IC50 (human FP receptor): 0.052 µM
Compound: O=C(NC12CCC(C(=O)O)(CC1)CC2)c1c(Cl)c(-c2ccccc2)nc2ccc(Br)cc12 [Example 30, 4-{[(6-Bromo-3-chloro-2-phenylquinolin-4-yl)carbonyl]amino}bicyclo[2.2.2]octane-1-carboxylic acid]

- IC50 (human FP receptor): 0.23 µM
Compound: Cc1c(-c2ccccc2)nc2ccc(Br)cc2c1C(=O)NC12CCCC(C(=O)O)(CC1)CC2 [Example 39, 5-{[(6-Bromo-3-methyl-2-phenylquinolin-4-yl)carbonyl]amino}bicyclo[3.2.2]nonane-1-carboxylic acid]

- IC50 (human FP receptor): 0.161 µM
Compound: O=C(NC12C3C4C1C1C2C3C41C(=O)O)c1c(Cl)c(-c2ccccc2)nc2ccc(Br)cc12 (stereo not shown) [Example 45, 4-{[(6-Bromo-3-chloro-2-phenylquinolin-4-yl)carbonyl]amino}cubane-1-carboxylic acid]

- IC50 (human FP receptor): 0.326 µM
Compound: Cc1c(-c2ccccc2)nc2ccc(C3CC3)cc2c1C(=O)NC12CCC(C(=O)O)(CC1)CC2 [Example 15, 4-{[(6-Cyclopropyl-3-methyl-2-phenylquinolin-4-yl)carbonyl]amino}bicyclo[2.2.2]octane-1-carboxylic acid]

- IC50 (human FP receptor): 0.351 µM
Compound: CCCc1c(-c2ccccc2)nc2ccc(Br)cc2c1C(=O)NC12CCC(C(=O)O)(CC1)CC2 [Example 31, 4-{[(6-Bromo-2-phenyl-3-propylquinolin-4-yl)carbonyl]amino}bicyclo[2.2.2]octane-1-carboxylic acid]

- IC50 (human FP receptor): 0.214 µM
Compound: Cc1c(-c2ccccc2)nc2c(C)cc(Br)cc2c1C(=O)NC12CCC(C(=O)O)(CC1)CC2 [Example 21, 4-{[(6-Bromo-3,8-dimethyl-2-phenylquinolin-4-yl)carbonyl]amino}bicyclo[2.2.2]octane-1-carboxylic acid]

- IC50 (human FP receptor): 0.18 µM
Compound: Cc1c(-c2ccc(F)cc2)nc2ccc(Br)cc2c1C(=O)NC12CCC(C(=O)O)(CC1)CC2 [Example 8, 4-({[6-Bromo-2-(4-fluorophenyl)-3-methylquinolin-4-yl]carbonyl}amino)bicyclo[2.2.2]octane-1-carboxylic acid]

- IC50 (human FP receptor): 0.113 µM
Compound: Cc1c(-c2cccs2)nc2ccc(Br)cc2c1C(=O)NC12CCC(C(=O)O)(CC1)CC2 [Example 5, 4-({[6-Bromo-3-methyl-2-(2-thienyl)quinolin-4-yl]carbonyl}amino)bicyclo[2.2.2]octane-1-carboxylic acid]
